The text below walks through data of patent US10604489B2, “Compounds for the treatment of pain” (priority 2018, dated 2020).

Structures can show the parent of a compound that is named as a salt. Bounds are passed on as bounds.

In general, Ki refers to the dissociation constant of the complex between target and ligand, obtained from inhibition or displacement. By EC50 is commonly meant the concentration needed to bring the measured effect to its halfway point. Lower therefore signals a more potent agent.

The target of one test is μ-receptor (Homo sapiens (Human), UniProt P35372). The test can be described thus: Receptor binding, competitive displacement of [3H]DAMGO. The settings on record: 0.25 nM [3H]DAMGO, CHO cell membrane protein, 60 min at 25° C. In short, it runs like this:
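Membranes from CHO cells stably expressing cloned human μ-opioid receptor incubated 60 min at 25 °C with 12 compound concentrations and 0.25 nM [3H]DAMGO in 50 mM Tris-HCl pH 7.5; nonspecific binding with 10 μM naloxone. Filtration and scintillation counting; Ki from IC50 by Cheng-Prusoff.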

The target of a further test is human μ opioid receptor (Homo sapiens (Human), UniProt P35372). The test can be described thus: Functional activity ([35S]GTPγS binding). Type of test: biochemical. The settings on record: [35S]GTPγS 0.080 nM, CHO cell membranes, 60 min at 30° C., filtration. Summed up: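 Membranes from stably transfected CHO cells (7.5 μg) incubated with 12 test-compound concentrations and 0.080 nM [35S]GTPγS in 50 mM Tris-HCl pH 7.4, 3 mM MgCl2, 0.2 mM EGTA, 3 μM GDP, 100 mM NaCl, 60 min at 30° C. Nonspecific binding defined with 10 μM GTPγS; bound label collected by filtration and scintillation counting.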

For the compound `COC1(c2ccnc(C(N)=O)c2)C2CCCC1CN(C[C@H]1CCCO1)C2.Cl` (single isomer, unassigned) [Compound 136, hydrochloride], at μ-receptor, the Ki is greater than 5 nM. This compound also registered an EC50 at human μ opioid receptor of 10 to 75 nM.
Taken in the same sequence, the figures for `COC1(c2ccnc(C(N)=O)c2)C2CCCC1CN(Cc1n[nH]c3ccccc13)C2` [Compound 142, 4-((1R,5S,9r)-3-((1H-indazol-3-yl)methyl)-9-methoxy-3-azabicyclo[3.3.1]nonan-9-yl)picolinamide hydrochloride] were less than 1 nM and less than 10 nM.
As to `COC1(c2ccnc(C(N)=O)c2)C2CCCC1CN(CCN1CCCS1(=O)=O)C2` [Compound 88, 4-((1R,5S,9r)-3-(2-(1,1-dioxidoisothiazolidin-2-yl)ethyl)-9-methoxy-3-azabicyclo[3.3.1]nonan-9-yl)picolinamide hydrochloride], the Ki on μ-receptor lay in the range of 1 to 5 nM. For the same compound, the EC50 at human μ opioid receptor was greater than 75 nM.
At μ-receptor, `COC1(c2ccnc(C(N)=O)c2)C2CCCC1CN(CC1(O)Cc3ccccc3C1)C2` [Compound 73, 4-((1R,5S,9r)-3-((2-hydroxy-2,3-dihydro-1H-inden-2-yl)methyl)-9-methoxy-3-azabicyclo[3.3.1]nonan-9-yl)picolinamide hydrochloride] had a Ki of less than 1 nM. Moreover, the EC50 at human μ opioid receptor is less than 10 nM.
Taken in the same sequence, the figures for `COC1(c2ccnc(C(N)=O)c2)C2CCCC1CN(C1CC3(COC3)C1)C2` [Compound 81, 4-((1R,5S,9r)-9-methoxy-3-(2-oxaspiro[3.3]heptan-6-yl)-3-azabicyclo[3.3.1]nonan-9-yl)picolinamide (S)-2-hydroxysuccinate] were less than 1 nM and 10 to 75 nM.
Taken in the same sequence, the figures for `COC1(c2cccc(C(N)=O)c2)C2CCCC1CNC2` [Compound 35, 3-((1R,5S,9r)-9-methoxy-3-azabicyclo[3.3.1]nonan-9-yl)benzamide hydrochloride] were less than 1 nM and 10 to 75 nM.
For `COC1(c2cccc(C(N)=O)c2F)C2CCCC1CN(C)C2` [Compound 39, 2-fluoro-3-((1R,5S,9r)-9-methoxy-3-methyl-3-azabicyclo[3.3.1]nonan-9-yl)benzamide hydrochloride], in that order: 1 to 5 nM and 10 to 75 nM.
As for `COC1(c2ccnc(C(N)=O)c2)C2CCCC1CN([C@H]1CC[C@@H]1C)C2` (stereo in doubt) [Compound 147, 4-((1R,5S,9R)-9-methoxy-3-((1R,2R)-2-methylcyclobutyl)-3-azabicyclo[3.3.1]nonan-9-yl)picolinamide hydrochloride], on μ-receptor, the Ki lay in the range of 1 to 5 nM. The same compound registered an EC50 on human μ opioid receptor of 10 to 75 nM.
`COC1(c2cccc(C(N)=O)c2)C2CCCC1CN(C1CC3(CCC3)C1)C2` [Compound 129, 3-((1R,5S,9r)-9-methoxy-3-(spiro[3.3]heptan-2-yl)-3-azabicyclo[3.3.1]nonan-9-yl)benzamide hydrochloride] returned a Ki on μ-receptor of less than 1 nM. At human μ opioid receptor, this compound had an EC50 of less than 10 nM.
`COC1(c2ccnc(C(N)=O)c2)C2CCCC1CN(C1CCC(F)(F)CC1)C2` [Compound 7, 4-((1R,5S,9r)-3-(4,4-difluorocyclohexyl)-9-methoxy-3-azabicyclo[3.3.1]nonan-9-yl)picolinamide hydrochloride] returned a Ki on μ-receptor of 1 to 5 nM. For the same compound, the EC50 on human μ opioid receptor was greater than 75 nM.
For `COC1(c2cccc(C(N)=O)c2)C2CCCC1CN(CCc1ccccc1)C2` [Compound 24, 3-((1R,5S,9r)-9-methoxy-3-phenethyl-3-azabicyclo[3.3.1]nonan-9-yl)benzamide hydrochloride], in that order: less than 1 nM and less than 10 nM.
For `COC1(c2ccnc(C(N)=O)c2)C2CCCC1CN(C1CCC1)C2` [Compound 90, 4-((1R,5S,9r)-3-cyclobutyl-9-methoxy-3-azabicyclo[3.3.1]nonan-9-yl)picolinamide hydrochloride], in that order: 1 to 5 nM and 10 to 75 nM.
Taken in the same sequence, the figures for `COC1(c2ccc(C(N)=O)s2)C2CCCC1CN(C1CCOCC1)C2` [Compound 71, 5-((1R,5S,9r)-9-methoxy-3-(tetrahydro-2H-pyran-4-yl)-3-azabicyclo[3.3.1]nonan-9-yl)thiophene-2-carboxamide hydrochloride] were greater than 5 nM and greater than 75 nM.
`COC1(c2ccnc(C(N)=O)c2)C2CCCC1CN(C(C)C)C2` [Compound 76, 4-((1R,5S,9r)-3-isopropyl-9-methoxy-3-azabicyclo[3.3.1]nonan-9-yl)picolinamide hydrochloride] displayed a Ki on μ-receptor of 1 to 5 nM. For the same compound, the EC50 on human μ opioid receptor was 10 to 75 nM.
Taken in the same sequence, the figures for `COC1(c2ccnc(C(N)=O)c2)C2CCCC1CN(CC(C)C)C2` [Compound 92, 4-((1R,5S,9r)-3-isobutyl-9-methoxy-3-azabicyclo[3.3.1]nonan-9-yl)picolinamide hydrochloride] were greater than 5 nM and greater than 75 nM.
For `COC1(c2ccnc(C(N)=O)c2)C2CCCC1CN(CCN1CCNC1=O)C2` [Compound 85, 4-((1R,5S,9r)-9-methoxy-3-(2-(2-oxoimidazolidin-1-yl)ethyl)-3-azabicyclo[3.3.1]nonan-9-yl)picolinamide hydrochloride], in that order: 1 to 5 nM and 10 to 75 nM.
Taken in the same sequence, the figures for `CCC[C@@H](C)N1CC2CCCC(C1)C2(OC)c1ccnc(C(N)=O)c1` (single isomer, unassigned) [Compound 137, hydrochloride] were 1 to 5 nM and 10 to 75 nM.
For `COC1(c2cccc(C(N)=O)c2)C2CCCC1CN([C@H]1C[C@H]3C[C@H]3C1)C2` (stereo partly drawn) [Compound 11, 3-((1R,5S,9r)-3-(bicyclo[3.1.0]hexan-3-yl)-9-methoxy-3-azabicyclo[3.3.1]nonan-9-yl)benzamide hydrochloride], at μ-receptor, the Ki is less than 1 nM. The compound further gave an EC50 at human μ opioid receptor of less than 10 nM.
For the compound `COC1(c2ccnc(C(N)=O)c2)C2CCCC1CN(C1(C)CC1)C2` [Compound 4, 4-((1R,5S,9r)-9-methoxy-3-(1-methylcyclopropyl)-3-azabicyclo[3.3.1]nonan-9-yl)picolinamide hydrochloride], at μ-receptor, the Ki is greater than 5 nM. At human μ opioid receptor, this compound returned an EC50 greater than 75 nM.
Taken in the same sequence, the figures for `COC1(c2ccnc(C(N)=O)c2)C2CCCC1CN(C[C@@H]1CCCO1)C2` (single isomer, unassigned) [Compound 135, hydrochloride] were 1 to 5 nM and 10 to 75 nM.
For `COC1(c2cccc(C(N)=O)c2)C2CCCC1CN(C[C@@H]1C[C@@H]3C[C@@H]3C1)C2` (stereo partly drawn) [Compound 156, 3-((1R,5S,9R)-3-((1R,3r,5S)-bicyclo[3.1.0]hexan-3-ylmethyl)-9-methoxy-3-azabicyclo[3.3.1]nonan-9-yl)benzamide hydrochloride], in that order: less than 1 nM and less than 10 nM.
`COC1(c2cccc(C(N)=O)c2)C2CCCC1CN(C[C@@H]1CCOC1)C2.Cl` (single isomer, unassigned) [Compound 143, hydrochloride] yielded a Ki at μ-receptor of less than 1 nM. For the same compound, at human μ opioid receptor, the 50% effective concentration (EC50) is less than 10 nM.
For `COC1(c2cccc(C(N)=O)c2)C2CCCC1CN(C1CC1)C2` [Compound 38, 3-((1R,5S,9r)-3-cyclopropyl-9-methoxy-3-azabicyclo[3.3.1]nonan-9-yl)benzamide hydrochloride], in that order: less than 1 nM and 10 to 75 nM.
For `COC1(c2ccnc(C(N)=O)c2)C2CCCC1CN([C@H]1C[C@H]3C[C@H]3C1)C2` (stereo partly drawn) [Compound 94, 4-((1R,5S,9R)-3-((1R,3s,5S)-bicyclo[3.1.0]hexan-3-yl)-9-methoxy-3-azabicyclo[3.3.1]nonan-9-yl)picolinamide hydrochloride], at μ-receptor, the inhibition constant (Ki) was less than 1 nM. The same compound came in with an EC50 at human μ opioid receptor of 10 to 75 nM.
Take `CCCCN1CC2CCCC(C1)C2(OC)c1cccc(C(N)=O)c1` [Compound 29, 3-((1R,5S,9r)-3-butyl-9-methoxy-3-azabicyclo[3.3.1]nonan-9-yl)benzamide hydrochloride]: the Ki on μ-receptor was less than 1 nM. This compound also registered a concentration for a half-maximal effect (EC50) at human μ opioid receptor of less than 10 nM.
For `COC1(c2cccc(C(N)=O)c2)C2CCCC1CN(CC1CCC1)C2` [Compound 26, 3-((1R,5S,9r)-3-(cyclobutylmethyl)-9-methoxy-3-azabicyclo[3.3.1]nonan-9-yl)benzamide hydrochloride], in that order: less than 1 nM and less than 10 nM.
For `COC1(c2ccc(C(N)=O)s2)C2CCCC1CN(C1CCCCC1)C2` [Compound 101, 5-((1R,5S,9r)-3-cyclohexyl-9-methoxy-3-azabicyclo[3.3.1]nonan-9-yl)thiophene-2-carboxamide hydrochloride], in that order: 1 to 5 nM and greater than 75 nM.
Taken in the same sequence, the figures for `COC1(c2ccnc(C(N)=O)c2)C2CCCC1CN([C@H]1CCCOC1)C2` (stereo partly drawn) [Compound 132, 4-((1R,5S,9s)-9-methoxy-3-((S)-tetrahydro-2H-pyran-3-yl)-3-azabicyclo[3.3.1]nonan-9-yl)picolinamide hydrochloride] were 1 to 5 nM and greater than 75 nM.
The compound `CCCC(C)N1CC2CCCC(C1)C2(OC)c1ccnc(C(N)=O)c1` [Compound 118, 4-((1R,5S,9r)-9-methoxy-3-(pentan-2-yl)-3-azabicyclo[3.3.1]nonan-9-yl)picolinamide hydrochloride] came in with a Ki at μ-receptor of 1 to 5 nM. On human μ opioid receptor, this compound yielded an EC50 of 10 to 75 nM.
Compound `COC1(c2ccnc(C(N)=O)c2)C2CCCC1CN([C@H]1C[C@@H]3[C@H](C1)C3(F)F)C2` (stereo partly drawn) [Compound 18, 4-((1R,5S,9R)-3-((1R,3r,5S)-6,6-difluorobicyclo[3.1.0]hexan-3-yl)-9-methoxy-3-azabicyclo[3.3.1]nonan-9-yl)picolinamide hydrochloride] displayed a Ki at μ-receptor of less than 1 nM. Also, the EC50 at human μ opioid receptor was less than 10 nM.
